Structures can show the parent of a compound that is named as a salt.
Key:
[1] = Temperature/relative humidity-related stability (validated HPLC assay, XRPD); format: physicochemical
Text: 3 Sample batches of the compound were stored under the conditions of the study as stated in the table below. The assay was done by a validated HPLC method.

[2] = in vivo; cited from earlier work
[3] = test system: broad spectrum of microorganisms including antibiotic-resistant strains of Staphylococcus aureus, more particularly glycopeptide-resistant staphylococci; conditions: incl. antibiotic-resistant S. aureus; cited from earlier work
[4] = Conversion of monohydrate to tetrahydrate under ambient conditions, by XRPD; format: physicochemical; conditions: ambient temperature (35° C.) and relative humidity (60%)
Method: X-ray diffraction analyses (40 kv x 40 mA Rigaku D/max 2200) were performed under the conditions listed below: • Scan speed 5°/min or 20°/min • Sampling time 7 min or 2 min • Scan mode: continuous • 2θ/θ reflection • Cu target (Ni filter)

## C[C@H]1CCc2c(N3CCC(O)CC3)c(F)cc3c(=O)c(C(=O)O)cn1c23 [S-(−)-9-fluoro-6,7-dihydro-8-(4-hydroxypiperidin-1-yl)-5-methyl-1-oxo-1H,5H-benzo[i,j]quinolizine-2-carboxylic acid L-arginine salt tetrahydrate]
[1]; 25° C./60% relative humidity, 3 months
  HPLC assay on storage: 99.22%
[1]; 25° C./60% relative humidity, Initial
  HPLC assay on storage: 99.31%
[1]; 40° C./75% relative humidity, 1 month
  HPLC assay on storage: 99.30%
[1]; 40° C./75% relative humidity, 2 months
  HPLC assay on storage: 99.25%
[1]; 40° C./75% relative humidity, 3 months
  HPLC assay on storage: 99.27%
[1]; 40° C./75% relative humidity, Initial
  HPLC assay on storage: 99.31%
[1]; storage conditions of the stability study
  Crystallinity on storage as seen by XRPD spectra: underwent no changes

## C[C@H]1CCc2c(N3CCC(O)CC3)c(F)cc3c(=O)c(C(=O)O)cn1c23.N=C(N)NCCC[C@H](N)C(=O)O [S-(−)-9-fluoro-6,7-dihydro-8-(4-hydroxypiperidin-1-yl)-5-methyl-1-oxo-1H,5H-benzo[i,j]quinolizine-2-carboxylic acid L-arginine salt]
[2]
  Overall tolerability: excellent overall tolerability
[3]
  Efficacy against microorganisms in mammals: effective against a broad spectrum of microorganisms

## C[C@H]1CCc2c(N3CCC(O)CC3)c(F)cc3c(=O)c(C(=O)O)cn1c23.N=C(N)NCCC[C@H](N)C(=O)O [monohydrate, S-(−)-9-fluoro-6,7-dihydro-8-(4-hydroxypiperidin-1-yl)-5-methyl-1-oxo-1H,5H-benzo[i,j]quinolizine-2-carboxylic acid L-arginine salt]
[4]
  Physical stability / moisture absorption: highly unstable and rapidly absorbs moisture
  Time until XRPD spectra change towards tetrahydrate: ≤ 20 min

— patent US7164023B2, “Benzoquinolizine-2-carboxylic acid arginine salt tetrahydrate” (priority 2003, dated 2007)
